Data published in US20220287306A1, “METHOD FOR IMPROVING TURFGRASS ABIOTIC STRESS TOLERANCE” (SYNGENTA PARTICATIONS AG, priority 2014, published 2022).

Legend:
Type in all cases: in vivo
[1] = system: Ultradwarf Bermudagrass; assay: Evapotranspiration of treated turfgrass samples at various vapor pressure deficits in the growth chamber (Example 3); details: ASM 30.8 g/ha per spray, 15 applications at 14 day intervals, with chlorothalonil, fluazinam and azoxystrobin products; vs Control without ASM; samples July 2015 and September 2015
Description: (§1) Fifteen applications of treatments were made on 14 day intervals through the season (starting in May and extending through October) on Ultradwarf Bermudagrass on golf course greens. The treatments included (1) a Control that included products with the active ingredients of chlorothalonil, fluazinam and azoxystrobin and no ASM and (2) a treatment that included products with the same active ingredients and rates of the Control treatment, but also included 30.8 g/ha rate of ASM for each spray.
(§2) Turfgrass Samples from the treated plots were taken from a) the ASM treated plots as well b) the Control plots without acibenzolar-s-methyl at two different timings—July 2015 and September 2015. All samples were tested for evapotranspiration at various vapor pressure deficits (VPD) in the growth chamber. The results of the testing are illustrated in FIGS. 9-12.

[2] = system: Ultradwarf Bermudagrass; assay: Turf quality and phytotoxicity on golf course greens (Example 3); details: ASM 30.8 g/ha per spray, 15 applications at 14 day intervals
Description: as §1, §2

[3] = system: warm-season turfgrasses; assay: Abiotic stress and phytotoxicity at stated application rates on warm-season turfgrasses; details: ASM between about 4 and about 200 g/ha per application
Description: As indicated above, the methods of the present invention may be useful in suppressing abiotic stress or stresses in warm-season turfgrasses. In some embodiments of the present invention, ASM may be applied at a rate of between about 4 and about 200 g/ha per application. In further embodiments of the invention, ASM may be applied at a rate between about 12 and about 150 g/ha per application, or between 12 and about 96 g/ha per application, or between about 12 and about 64 g/ha per application, or between about 12 and about 32 g/ha per application, or between about 32 and about 140 g/ha per application, or between about 32 and about 96 g/ha per application, or between about 32 and about 64 g/ha per application, or between about 64 and about 140 g/ha per application, or between about 64 and about 96 g/ha per application, or between about 96 and about 140 g/ha per application.

[4] = system: cool-season grasses; assay: Phytotoxicity at stated application rates on cool-season grasses; details: ASM between about 4 and about 200 g/ha per application

CSC(=O)c1cccc2nnsc12 [ASM, S-methyl benzo[1,2,3]thiadiazole-7-carbothioate]
evapotranspiration as VPD increases [1]: overall reduced evapotranspiration
phytotoxicity to the turfgrass [2]: did not result in any unacceptable phytotoxicity
turf quality under drought or heat stress ([2]; with chlorothalonil, fluazinam and azoxystrobin products): improved turf quality
phytotoxicity to warm-season turfgrasses [3]: avoiding unacceptable phytotoxicity
phytotoxicity to cool-season grasses [4]: unacceptable levels of phytotoxicity
